# Assay results reported in PubChem BioAssay (NCI).
#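 GI50 = concentration required for 50% inhibition of growth. TGI denotes the concentration required for complete inhibition of growth.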
# What was measured:
# Assay in all cases: NCI-60 cell line screen, 384-well format
# [1] = tested on: OVCAR-5 ovarian
# [2] = tested on: SF-539 CNS
# [3] = tested on: K-562 leukemia
# [4] = tested on: SK-MEL-2 melanoma
# [5] = tested on: MOLT-4 leukemia
# [6] = tested on: MDA-MB-435 melanoma
# [7] = tested on: OVCAR-3 ovarian
# [8] = tested on: NCI-H322M lung
# [9] = tested on: HOP-92 NSCLC
# [10] = tested on: SN12C renal
# [11] = tested on: MDA-MB-468 breast
# [12] = tested on: HL-60(TB) leukemia
# [13] = tested on: UACC-62 melanoma
# [14] = tested on: ACHN renal
# [15] = tested on: HCT-15 colon
# [16] = tested on: HOP-62 NSCLC
# [17] = tested on: OVCAR-4 ovarian
# [18] = tested on: RXF 393 renal
# [19] = tested on: HS 578T breast
# [20] = tested on: SF-268 CNS
# [21] = tested on: TK-10 renal
# [22] = tested on: OVCAR-8 ovarian
# [23] = tested on: SK-MEL-28 melanoma
# [24] = tested on: UACC-257 melanoma
# [25] = tested on: CCRF-CEM leukemia
# [26] = tested on: EKVX NSCLC
# [27] = tested on: A549 NSCLC
# [28] = tested on: BT-549 breast
# [29] = tested on: NCI-H522 lung
# [30] = tested on: M14 melanoma
# [31] = tested on: MALME-3M melanoma
# [32] = tested on: PC-3 prostate
# [33] = tested on: MDA-MB-231 breast
# [34] = tested on: DU-145 prostate
# [35] = tested on: UO-31 renal
# [36] = tested on: RPMI-8226 leukemia
# [37] = tested on: NCI-H23 lung
# [38] = tested on: SNB-75 CNS
# [39] = tested on: SW-620 colon
# [40] = tested on: LOX IMVI melanoma
# [41] = tested on: SNB-19 CNS
smiles,measurement,setting,value
CO[C@H](C(=O)[C@@H](O)[C@@H](C)O)[C@@H]1Cc2cc3cc(OC4CC(OC5CC(O)C(O)C(C)O5)C(O)C(C)O4)c(C)c(O)c3c(O)c2C(=O)[C@H]1OC1CC(OC2CC(OC3CC(C)(O)C(O)C(C)O3)C(O)C(C)O2)C(O)C(C)O1 (some centres undefined),GI50,[1],19.5 nM
same,TGI,[1],43.5 nM
same,GI50,[2],13.6 nM
same,TGI,[2],27.1 nM
same,GI50,[3],18.8 nM
same,TGI,[3],40.4 nM
same,GI50,[4],32.9 nM
same,TGI,[4],47.9 nM
same,TGI,[5],17.7 nM
same,GI50,[6],18.9 nM
same,TGI,[6],38.4 nM
same,GI50,[7],20.3 nM
same,TGI,[7],73.4 nM
same,GI50,[8],17.4 nM
same,TGI,[8],42.2 nM
same,GI50,[9],31.7 nM
same,GI50,[10],15.2 nM
same,TGI,[10],36.9 nM
same,GI50,[11],16.3 nM
same,TGI,[11],32.4 nM
same,GI50,[12],14 nM
same,TGI,[12],29.4 nM
same,TGI,[13],21.6 nM
same,GI50,[14],54.6 nM
same,TGI,[14],294 nM
same,GI50,[15],139 nM
same,TGI,[15],970 nM
same,GI50,[16],13.7 nM
same,TGI,[16],29.5 nM
same,GI50,[17],31.6 nM
same,TGI,[17],371 nM
same,GI50,[18],10.7 nM
same,TGI,[18],23.1 nM
same,GI50,[19],13.2 nM
same,TGI,[19],27.7 nM
same,GI50,[20],17.2 nM
same,TGI,[20],965 nM
same,GI50,[21],50.3 nM
same,GI50,[22],15.5 nM
same,TGI,[22],29.9 nM
same,GI50,[23],16.4 nM
same,TGI,[23],30.5 nM
same,GI50,[24],18.5 nM
same,TGI,[24],34.5 nM
same,GI50,[25],33.9 nM
same,TGI,[25],110 nM
same,GI50,[26],75.1 nM
same,TGI,[26],11000 nM
same,GI50,[27],30.4 nM
same,GI50,[28],10.6 nM
same,TGI,[28],23.7 nM
same,GI50,[29],13 nM
same,TGI,[29],26.8 nM
same,GI50,[30],18 nM
same,TGI,[30],39.8 nM
same,GI50,[31],14.1 nM
same,TGI,[31],28 nM
same,GI50,[32],32.9 nM
same,TGI,[32],220 nM
same,GI50,[33],16.6 nM
same,TGI,[33],37.2 nM
same,GI50,[34],28.8 nM
same,GI50,[35],182 nM
same,TGI,[35],451 nM
same,GI50,[36],11.1 nM
same,TGI,[36],23.6 nM
same,GI50,[37],18.4 nM
same,TGI,[37],35.9 nM
same,GI50,[38],11.8 nM
same,TGI,[38],30.4 nM
same,GI50,[39],32.4 nM
same,GI50,[40],16.9 nM
same,TGI,[40],31.2 nM
same,GI50,[41],23.7 nM
